Source: patent publication US12037372B2, “Bioactive peptides derived from snakes” (Universiteit Leiden, priority 2018, dated 2024)
Entries after “also recorded” stand apart in the source; their conditions may differ.

Key:
[1] = test system: human neutrophils; test: Neutrophil migration assay; assay type: cell-based; details: 3.2 μM peptide
Experimental: Heparinized blood was collected from healthy human volunteers. Next, 10 ml of blood were mixed to 15 ml of PBS in a tube. Underneath the diluted blood, 10 ml of Ficoll (Pharmacy, LUMC) were added. The tube was spun at 1800 rpm for 20 minutes without brake. The supernatant was removed and 40 ml of erythrocyte lysis buffer (0.1 mM EDTA, 0.18 M NH4Cl, 10 mM KHCO3) were added to the pellet. This mixture was incubated at room temperature until erythrocyte lysis was evident. The tube was centrifuged at 1200 rpm for 10 minutes, the supernatant was discarded. The pellet was washed again with PBS the same way. The pellet was resuspended in RPMI 1640 medium and the cells were counted with a counting chamber. The cells were diluted to 2×10^6 cells/ml of RPMI 1640. The inserts with a 3.0 μm pore size in a 12-well plate (HTS transwell; Costar) were blocked with 400 μl of PBS with 0.1% w/v BSA for 10 minutes at room temperature after which the BSA solution was discarded. The 2×10^6 cells/ml suspension was diluted with RPMI to add 400 μl of a 2×10^5 cells/ml suspension to the inserts. […] In the lower compartment 1 ml of the chemoattractant was added. […] Results were expressed as the percentage of migrated neutrophils compared to the positive FMLP control, and corrected for the negative control.

[2] = test system: MDR S. aureus (LUH 14616), MRSA; test: Bactericidal activity of peptides (in vitro killing assay); assay type: cell-based, Staphylococcus aureus; details: 50% v/v human plasma
Experimental: (§1) Enterococcus faecium (LUH 15122), Staphylococcus aureus (LUH 14616), Klebsiella pneumoniae (LUH 15104), Acinetobacter baumannii (RUH 875), Pseudomonas aeruginosa (LUH 15103), Enterobacter cloacae (LUH 15114) and Escherichia coli (LUH 15117) were used. Prior to experimentation the bacteria were taken from a glycerol stock stored at −80° C. and cultured overnight on sheep blood agar plates at 37° C. On the day of experimentation the bacteria were cultured in tryptic soy broth (TSB; Oxoid) for 2.5 hours at 37° C. and 200 rpm to a mid-logarithmic phase. The bacterial suspension was washed in phosphate buffered saline (PBS; pH 7.4), centrifuged for 10 minutes at 3000 rpm, and resuspended in PBS to the desired concentration, as determined by measuring the absorbance at 600 nm.
(§2) As a control the bacteria were also incubated in PBS with either 50% plasma or 50% urine without peptide. The plate was incubated for 2 hours at 37° C. and 200 rpm. After incubation the number of viable bacteria was determined microbiologically by plating the samples and a 10-times dilution series in PBS on diagnostic sensitivity test agar plates (DST; Sigma). The DST plates were incubated overnight at 37° C. Results were expressed as lethal concentration 99.9, or LC99.9, which represents the lowest concentration of peptide that killed 99.9% of the bacteria within 2 hours of incubation.

[3] = test system: multidrug resistant strain Acinetobacter baumannii RUH875; test: as above; assay type: cell-based; details: MDR A. baumannii; PBS with 50% plasma; 2 hours
Experimental: as §1, §2

[4] = test system: colistin-resistant E. coli (LUH 15117); test: as above; assay type: cell-based, Escherichia coli; details: PBS with 50% plasma, 2 hours
Experimental: as §1, §2

[5] = test system: MDR K. pneumoniae (LUH 15104); test: as above; assay type: cell-based, Klebsiella pneumoniae; details: PBS with 50% plasma, 2 hours
Experimental: as §1, §2

[6] = test system: MDR E. cloacae (LUH 15114); test: as above; assay type: cell-based, Enterobacter cloacae; details: PBS with 50% plasma, 2 hours
Experimental: as §1, §2

[7] = test system: E. faecium (LUH 15122); test: as above; assay type: cell-based, Enterococcus faecium; details: PBS with 50% plasma, 2 hours
Experimental: as §1, §2

[8] = test system: S. aureus LUH 14616; test: Resistance development assay; assay type: cell-based, Staphylococcus aureus; details: 20 passages
Experimental: (§3) A bacterial culture was prepared and washed as described before. The bacterial culture was diluted to a concentration of 5×10^6 CFU/ml in modified RPMI 1640 comprising 20 mM HEPES, L-glutamine and without sodium bicarbonate (RPMImod; Sigma-Aldrich). In a polypropylene 96-well plate, a two-fold peptide dilution series was made in RPMImod with concentrations ranging from 0.94 μM to 240 μM. […] A negative control of RPMImod without peptide or an antibiotic was included for both dilution series. A contamination control was included containing only RPMImod. To all the wells, except the contamination control wells, 5 μl of the bacterial suspension were added. The plate was sealed and incubated overnight at 37° C. and 200 rpm. After incubation the MIC was determined as the well with the lowest peptide concentration and no bacterial growth. The well with half the MIC was diluted 2.5-fold with RPMImod and transferred to an Eppendorf tube. […] The results were expressed as the fold increase of the MIC compared to the MIC at the first passage.

[9] = test system: A. Baumannii; test: Resistance development assay; assay type: cell-based, Acinetobacter baumannii; details: 20 passages
Experimental: as §3

[10] = test system: E. coli; test: Resistance development assay; assay type: cell-based, Escherichia coli; details: 20 passages
Experimental: as §3

[11] = test system: 24-hour biofilm of A. baumannii RUH 875; test: Biofilm breakdown assay; assay type: cell-based, Acinetobacter baumannii; details: 2-hour treatment
Experimental: To a polypropylene 96-well flat-bottom plate (Greiner) 50 μl of a bacterial suspension at a concentration of 1×10^7 CFU/ml in BM2 medium (Overhage et al., 2008) were added. A control comprising BM2 medium alone was included. The plate was sealed off with a seal (Costar) and incubated in a humidified environment for 24 hours at 37° C. Thereafter the wells were washed 2 times with PBS. […] The plate was sealed off and incubated for 2 hours at 37° C. and 200 rpm. For analysis the plate was sonicated (Ultrasoonbad BRANSONIC® m1800H-E; Boom b.v.) for 5 minutes to detach the biofilm bacteria. The number of viable bacteria in the sonicates was determined microbiologically by plating the samples and a 10-times dilution series on DST agar plates and incubating these overnight at 37° C. Results were expressed as the LC99.9.

[12] = test system: A. Baumannii; test: Killing of A. baumannii in BM2 medium (control); assay type: cell-based, Acinetobacter baumannii; details: 0.8 μM peptide
Experimental: As a control, the ability of these peptides to kill A. baumannii in BM2 medium was assessed.

[13] = test system: MRSA (S. aureus LUH 14616) on ex vivo human skin; test: Ex vivo skin model; design: species or system Staphylococcus aureus; details: 10 μl peptide solution; 1 hour treatment
Source text: The donor skin was transported to the LUMC in RPMI 1640 medium (Gibco) supplemented with penicillin/streptomycin (Gibco). Skin samples were washed in PBS and left overnight in RPMI 1640 medium without antibiotics. On the day of the experiment the skin was again washed in PBS, then spread out and punches with a diameter of 8 mm diameter were made with a biopsy punch (Stiefel). The skin samples were dried with a cotton swab. A liquid dam was made with LC Block-Out Resin (Ultradent) on the edge of the skin samples to prevent liquids from dripping off. The liquid dam was solidified by 4 seconds exposure of UV light (Super 1200 led; ECO). The skin samples were placed on grids in a 12-well plate (Costar) filled underneath with medium comprising Ham F12, DMEM and FCS (Gibco). An S. aureus LUH 14616 bacterial suspension was cultured and washed as described before. The skin punches were inoculated with 5 μl of the bacterial suspension (1×10^8 CFU/ml) for one hour at 37° C. and 5% CO2. […] The infected skin was treated for 1 hour at 37° C. and 5% CO2 with 10 μl of the peptide solutions, including a control with 10 μl of PBS alone. Polypropylene tubes were filed with glass beads (1.7 mm diameter) and 1 ml of PBS. The liquid dam was removed from the skin after treatment. […] Results were expressed as the number of viable bacteria (CFU/ml) after treatment.

[14] = test system: lipopolysaccharide from E. coli J5 (LPS); test: LPS neutralization by peptides (whole blood, IL-12p40 ELISA); assay type: cell-based, human; details: compared to the LPS control
Experimental: Heparinized blood collected from healthy human volunteers was diluted five times in RPMI 1640. Next, 195 μl of diluted blood were pipetted in to the wells of a 96-well cell culture plate. In another 96-well polypropylene V-bottom plate, 15 μl of peptide solution with final concentrations of 1 nM to 1000 nM were mixed with 15 μl of 500 ng/ml lipopolysaccharide from E. coli J5 (LPS; Sigma) for 30 minutes at 37° C. and 200 rpm. After incubation the mixtures were diluted five times with 120 μl of RPMI. From the diluted mixtures 5 μl were transferred to the wells of the plate containing the 195 μl of blood. The plate was incubated for 20 hours at 37° C. and 5% CO2. The plate was centrifuged for 5 minutes at 1200 rpm. The supernatants were stored as aliquots at −20° C. until analysis of the cytokine level by ELISA. The IL-12p40 sandwich ELISA from Invitrogen was used. ELISAs were performed according to manufacturer's instructions. Results were expressed as the concentration IL-12p40 in pg/ml.

[15] = test system: persisters originating from matured, antibiotic-exposed, MRSA biofilms; test: Activity against persisters; assay type: cell-based, Staphylococcus aureus
[16] = test system: MDR P. aeruginosa (LUH 15103); test: Bactericidal activity of peptides (in vitro killing assay); assay type: cell-based, Pseudomonas aeruginosa; details: 2-hour treatment, 50% v/v human plasma, median (range)
Experimental: as §1, §2

[17] = test system: melanoma cells and other cancer cells; details: Wang et al.; cited from earlier work
[18] = test system: melanoma; details: Wang et al.; cited from earlier work
[19] = test system: MRSA; details: Cai et al., 2018; cited from earlier work
[20] = test system: P. aeruginosa; details: Cai et al., 2018; cited from earlier work

LL-37
migrated neutrophils [1]: 5.6%

KRFKKFFKKLKNNVKKRVKKFFRKPRVIGVTIPF [SP4]
LC99.9 ([2]; Table 2, MDR S. aureus, concentration inducing 3 log reduction of viable bacteria): 3.2 µM | LC99.9, bactericidal activity [3]: submicromolar concentrations | LC99.9, bactericidal activity [4]: submicromolar concentrations | LC99.9, bactericidal activity [5]: submicromolar concentrations | LC99.9, bactericidal activity [6]: submicromolar concentrations | LC99.9, bactericidal activity [7]: low micromolar concentrations | resistance development: fold increase of the MIC [8]: remained constant for all 20 passages; also recorded: limited resistance | resistance development: fold increase of the MIC [9]: remained constant for all 20 passages | resistance development: fold increase of the MIC [10]: remained constant for all 20 passages | peptide concentration with complete elimination of the biofilms [11]: 51.2 µM | reduction of viable bacteria [12]: 2 log | peptide concentration killing 99.9% of the MRSA on ex vivo human skin [13]: 102.4 µM | LPS neutralization (IL-12p40 production) ([14]; 100 nM peptide): 74% | LPS neutralization (IL-12p40 production) ([14]; 1000 nM peptide): 96% | activity against persisters [15]: highly effective

KRFKKFFRKLKKSVKKRAKEFFKKPRVIGVSIPF [SP5]
LC99.9 (μM) MRSA in 50% plasma ([2]; MDR S. aureus LUH 14616, 2-hour treatment, lowest concentration killing ≥99.9%, median (range)): 25.6 µM | LC99.9 (μM) MDR P. aeruginosa in 50% plasma [16]: 0.4 µM | effect on melanoma cells and other cancer cells in vitro [17]: inhibits | tumor load in melanoma-bearing mice [18]: reduces the tumor load

KRFQNFFRELEKKFREFFRVYRITIGATIRF [SP16]
bactericidal effect against MRSA [19]: no bactericidal effect | bactericidal effect against P. aeruginosa [20]: no bactericidal effect
